Four molecules from US8648086B2, “5,6-bicyclic heteroaryl-containing urea compounds as kinase inhibitors” (Ascepion Pharmaceuticals, Inc., priority 2009, dated 2014) can be followed below.

Structures can show the parent of a compound that is named as a salt. Bounds are passed on as bounds.

Test [1] addresses T1, VEGFR2 (Homo sapiens, UniProt P35968).
T1 construct: expressed in transfected cells; host or cells: CHO cells, pcDNA3.1 plasmid
In words: VEGFR2 cell-based assay (phospho-VEGFR2 ELISA, transfected CHO cells). Conditions: compound at 100 nM, read-out: % VEGFR2 kinase activity remains. The method, boiled down: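 Serum-starved CHO cells transfected with full-length VEGFR2 treated 2 h with compound (0.5–500 nM), then stimulated with 20% FBS. Lysates analyzed by ELISA for phospho- and total VEGFR2 using streptavidin-HRP chemiluminescence.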

In test [2] the target is T2, c-Met (Homo sapiens, UniProt P08581).
T2 construct: endogenous in cells; host or cells: A549 cells
In words: c-Met cell-based assay (phospho-c-Met ELISA, A549 cells). The following applies: compound at 100 nM. The method, boiled down: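 Serum-starved A549 cells (NSCLC) pretreated 2 h with compound (0.5 nM to 500 nM), then stimulated 20 min with 20% FBS. Lysates analysed by ELISA for phospho-c-Met and total c-Met with streptavidin-HRP chemiluminescence.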
Background: ELISA stands for enzyme-linked immunosorbent assay.

The subject of test [3] is MDA-MB-231 human breast cancer cells. In words: In vivo anti-tumor efficacy, MDA-MB-231 xenograft. The following applies: Breast cancer MDA-MB-231, nu/nu Balb/c mice, 100 mg/kg oral once per day, n = 2 × 3. The procedure:
(§1) Female (nu/nu) Balb/c athymic mice at 4-6 weeks of age were injected subcutaneously (s.c.) with MDA-MB-231 human breast cancer cells, A549 human non-small cell lung cancer cells, U87-MG human glioblastoma cells, PC-3 human prostate cancer cells, HT-29 human colon cancer, BEL-7404 human hepatocellular carcinoma, or MKN-45 human gastric cancer cells (ATCC, 5×10^6 cells suspended in 100 μl DMEM medium). Treatment was initiated after the tumor mass grown from s.c. implanted tumor cells reached a median volume of 200-400 mm^3. Mice were randomized into groups with three in each group for small-sample efficacy tests such that the median tumor volume is nearly equal among all groups. For large-sample efficacy tests, mice were randomized into groups with thirteen or fourteen in each group. Each group was treated either with compounds (dissolved in 2:1 mixture of PEG400 and 0.01N HCl (v/v)) or without compounds (vehicle only, 2:1 mixture of PEG400 and 0.01N HCl (v/v)) once per day at dose 12.5, 25, 50 or 100 mg/kg by oral gavage. Tumor volumes were assessed at least twice weekly by caliper measurement from the start of treatment. Tumor volume was calculated using the formula ½×L×W^2 (L: length of tumor's long axis, W: length of tumor's short axis). Treatment was applied for at least two weeks or until the tumor volume reaches a size of ˜2500 mm^3 or greater. Mice were humanly sacrificed after the experiment.
(§2) The efficacy of compounds in reducing tumor growth was assessed by the index Tumor Growth Inhibition (TGI). TGI for a given treatment period was calculated using the group mean tumor volumes according to the formula: TGI=100×(VVehicle—group−VTreatment—group)÷VVehicle—group wherein VVehicle—group represents the mean tumor volume for the group treated with vehicle and VTreatment—group represents the mean tumor volume of the group treated with a compound.

Test [4] has as its system MKN-45 human gastric cancer cells. In words: In vivo anti-tumor efficacy, MKN-45 xenograft. Conditions: Gastric cancer MKN-45, nu/nu Balb/c mice, 100 mg/kg oral once per day, n = 2 × 3. The procedure: as §1, with “experiment. The efficacy of compounds in reducing tumor growth was assessed by the index Tumor Growth Inhibition (TGI). TGI for a given treatment period was calculated using the group mean tumor volumes according to the formula: TGI=100×(VVehicle—group−VTreatment—group)÷VVehicle—group wherein VVehicle—group represents the mean tumor volume for the group treated with vehicle and VTreatment—group represents the mean tumor volume of the group treated with a compound.” for “experiment.”

The test system of test [5] is A549 human non-small cell lung cancer cells. In words: In vivo anti-tumor efficacy, A549 xenograft. Conditions: Non-small cell lung cancer A549, nu/nu Balb/c mice, n = 2 × 3. The procedure:
as §1, with “experiment. The efficacy of compounds in reducing tumor growth was assessed by the index Tumor Growth Inhibition (TGI). TGI for a given treatment period was calculated using the group mean tumor volumes according to the formula: TGI=100×(VVehicle—group−VTreatment—group)÷VVehicle—group wherein VVehicle—group represents the mean tumor volume for the group treated with vehicle and VTreatment—group represents the mean tumor volume of the group treated with a compound.” for “experiment.”

For test [6], the system named is PC-3 human prostate cancer cells. In words: In vivo anti-tumor efficacy, PC-3 xenograft. The following applies: Prostate cancer PC-3, nu/nu Balb/c mice, n = 2 × 3. The procedure:
as §1, with “experiment. The efficacy of compounds in reducing tumor growth was assessed by the index Tumor Growth Inhibition (TGI). TGI for a given treatment period was calculated using the group mean tumor volumes according to the formula: TGI=100×(VVehicle—group−VTreatment—group)÷VVehicle—group wherein VVehicle—group represents the mean tumor volume for the group treated with vehicle and VTreatment—group represents the mean tumor volume of the group treated with a compound.” for “experiment.”

Test [7] concerns U87-MG human glioblastoma cells. In words: In vivo anti-tumor efficacy, U87-MG xenograft. The following applies: nu/nu Balb/c mice, 100 mg/kg oral once per day, n = 2 × 3. The procedure:
Female (nu/nu) Balb/c athymic mice at 4-6 weeks of age were injected subcutaneously (s.c.) with MDA-MB-231 human breast cancer cells, A549 human non-small cell lung cancer cells, U87-MG human glioblastoma cells, PC-3 human prostate cancer cells, HT-29 human colon cancer, BEL-7404 human hepatocellular carcinoma, or MKN-45 human gastric cancer cells (ATCC, 5×10^6 cells suspended in 100 μl DMEM medium). Treatment was initiated after the tumor mass grown from s.c. implanted tumor cells reached a median volume of 200-400 mm^3. Mice were randomized into groups with three in each group for small-sample efficacy tests such that the median tumor volume is nearly equal among all groups. […] Tumor volumes were assessed at least twice weekly by caliper measurement from the start of treatment. Tumor volume was calculated using the formula ½×L×W^2 (L: length of tumor's long axis, W: length of tumor's short axis). […] The efficacy of compounds in reducing tumor growth was assessed by the index Tumor Growth Inhibition (TGI). TGI for a given treatment period was calculated using the group mean tumor volumes according to the formula: TGI=100×(VVehicle—group−VTreatment—group)÷VVehicle—group wherein VVehicle—group represents the mean tumor volume for the group treated with vehicle and VTreatment—group represents the mean tumor volume of the group treated with a compound.

Test [8] addresses T3, PDGFRβ (Homo sapiens, UniProt P09619).
T3 construct: expressed in transfected cells; host or cells: CHO cells, pcDNA3.1 plasmid
In words: PDGFRβ cell-based assay (phospho-PDGFRβ ELISA, transfected CHO cells). Conditions: compound at 100 nM, read-out: % PDGFRβ kinase activity remains. The procedure: A standard cell-based assay for PDGFRβ kinase activity can be used to test a compound of this invention and to identify PDGFRβ antagonists.
Specifically, a compound to be tested was first dissolved in DMSO to a concentration of 10 mM and stored at −20° C. The activity of PDGFRβ in cells depends on the phosphorylation level of its intracellular domain induced by the ligand. In order to express PDGFRβ in the cell, full length PDGFRβ sequence was cloned into PC-DNA3.1 vector. The plasmid was then transfected into CHO cells. After 48 hours following the transfection, the expression of PDGFRβ in transfected CHO cells was confirmed by regular western blotting.
To screen the compound of this invention, the ELISA kit (R&D Systems, Minneapolis, Minn., USA) was used. One day before the screening, CHO cells transfected with full length PDGFRβ plasmid were grown in DMEM medium without the presence of serum. On the day of screening, various concentrations of compounds (from 0.5 nM to 500 nM) were added into DMEM medium. Two hours later, 20% of FBS (Fetal Bovine Serum) was added into the medium to stimulate the expression of phosphor-PDGFRβ. Cell lysate from approximately 5×10^5 transfected CHO cells were reacted with anti-phosphor-PDGFRβ or anti-total PDGFRβ antibody in 96 well plates, in the presence of detection antibody, the phosphor-PDGFRβ or total PDGFRβ were detected with Streptavidin-HRP (R&D Systems), followed by chemiluminescent detection.

Test [9] has as its system HT-1299. In words: In vivo anti-tumor efficacy, HT-1299 lung cancer xenograft. Conditions: Lung cancer HT-1299, nu/nu Balb/c mice, 100 mg/kg oral once per day, n = 2 × 3.
The subject of test [10] is BEL-7404 human hepatocellular carcinoma. In words: In vivo anti-tumor efficacy, BEL-7404 xenograft. Conditions: Liver cancer BEL-7404, nu/nu Balb/c mice, 50 mg/kg oral once per day, n = 2 × 3. The procedure: Female (nu/nu) Balb/c athymic mice at 4-6 weeks of age were injected subcutaneously (s.c.) with MDA-MB-231 human breast cancer cells, A549 human non-small cell lung cancer cells, U87-MG human glioblastoma cells, PC-3 human prostate cancer cells, HT-29 human colon cancer, BEL-7404 human hepatocellular carcinoma, or MKN-45 human gastric cancer cells (ATCC, 5×10^6 cells suspended in 100 μl DMEM medium). Treatment was initiated after the tumor mass grown from s.c. implanted tumor cells reached a median volume of 200-400 mm^3. Mice were randomized into groups with three in each group for small-sample efficacy tests such that the median tumor volume is nearly equal among all groups. […] Tumor volumes were assessed at least twice weekly by caliper measurement from the start of treatment. Tumor volume was calculated using the formula ½×L×W^2 (L: length of tumor's long axis, W: length of tumor's short axis). […]
as §2

For test [11], the target named is T4, c-Kit (Homo sapiens, UniProt P10721).
T4 construct: purchased KINOMEscan service (Ambit Biosciences, San Diego)
In words: KINOMEscan competition binding assay, c-Kit. The following applies: compound at 100 nM; lower number indicates stronger hit. The procedure: (§3) A standard competition binding assay can be used to test the ability of a compound of this invention on competing with both intended and unintended kinases in vitro. To screen a compound against a large number of human kinases, a competition binding assay with an active-site dependent binding technology was performed by KINOMEscan service (Ambit Biosciences, San Diego, Cal., USA). Three components were combined in this assay—DNA-tagged kinase, immobilized ligand, and the test compound. The ability of the test compound to compete with the immobilized ligand was measured by quantitative PCR of the DNA of the DNA tag. A number of the compounds of this invention were screened at the concentration of 100 nM by this binding assay, and the results were reported as “% Ctrl,” and the lower number indicates stronger “hit” in this matrix.

Test [12] has as its target T5, CSF-1R (Homo sapiens, UniProt P07333).
T5 construct: purchased KINOMEscan service (Ambit Biosciences, San Diego)
In words: KINOMEscan competition binding assay, CSF-1R. The following applies: compound at 100 nM; lower number indicates stronger hit. The procedure: as §3

Test [13] addresses T6, EPHA2 (Homo sapiens, UniProt P29317).
T6 construct: purchased KINOMEscan service (Ambit Biosciences, San Diego)
In words: KINOMEscan competition binding assay, EPHA2. The following applies: compound at 100 nM; lower number indicates stronger hit. The procedure: as §3

T2 sequence (P08581 25-1390): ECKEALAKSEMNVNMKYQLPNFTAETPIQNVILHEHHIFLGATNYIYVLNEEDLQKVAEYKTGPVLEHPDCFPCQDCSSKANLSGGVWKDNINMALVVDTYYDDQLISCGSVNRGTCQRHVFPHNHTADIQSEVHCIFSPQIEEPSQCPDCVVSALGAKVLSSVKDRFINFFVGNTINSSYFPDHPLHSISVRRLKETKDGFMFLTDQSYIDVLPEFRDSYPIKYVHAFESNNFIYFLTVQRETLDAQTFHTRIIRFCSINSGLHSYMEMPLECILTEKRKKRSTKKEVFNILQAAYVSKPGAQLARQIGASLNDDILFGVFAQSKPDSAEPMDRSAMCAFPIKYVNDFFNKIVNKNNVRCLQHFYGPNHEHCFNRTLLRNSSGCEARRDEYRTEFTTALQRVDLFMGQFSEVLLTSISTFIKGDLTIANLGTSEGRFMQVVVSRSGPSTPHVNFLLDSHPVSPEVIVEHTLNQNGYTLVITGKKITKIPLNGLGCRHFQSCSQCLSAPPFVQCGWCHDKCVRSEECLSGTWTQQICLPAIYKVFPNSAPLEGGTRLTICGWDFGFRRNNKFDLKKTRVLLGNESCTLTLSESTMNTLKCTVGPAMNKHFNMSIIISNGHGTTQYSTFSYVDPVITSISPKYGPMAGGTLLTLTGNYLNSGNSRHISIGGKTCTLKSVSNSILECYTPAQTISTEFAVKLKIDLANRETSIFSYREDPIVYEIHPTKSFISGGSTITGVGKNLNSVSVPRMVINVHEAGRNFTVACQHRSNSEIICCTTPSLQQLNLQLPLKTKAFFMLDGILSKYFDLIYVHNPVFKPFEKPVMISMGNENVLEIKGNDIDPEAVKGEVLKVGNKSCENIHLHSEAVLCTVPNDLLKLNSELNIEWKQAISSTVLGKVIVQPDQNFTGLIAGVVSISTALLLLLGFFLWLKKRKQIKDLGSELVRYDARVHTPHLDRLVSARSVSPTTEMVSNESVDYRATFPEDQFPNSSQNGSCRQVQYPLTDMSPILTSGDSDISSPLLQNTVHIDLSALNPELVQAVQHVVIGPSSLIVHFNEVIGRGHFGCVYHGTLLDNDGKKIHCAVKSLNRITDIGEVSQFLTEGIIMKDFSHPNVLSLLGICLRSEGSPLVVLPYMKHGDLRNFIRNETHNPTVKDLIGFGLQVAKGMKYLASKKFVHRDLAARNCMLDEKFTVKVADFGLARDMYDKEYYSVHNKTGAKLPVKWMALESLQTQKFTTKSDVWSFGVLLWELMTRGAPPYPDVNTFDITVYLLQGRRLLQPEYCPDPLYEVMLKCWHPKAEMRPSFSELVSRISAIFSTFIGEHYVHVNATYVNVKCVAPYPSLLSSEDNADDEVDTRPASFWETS
T1 sequence (P35968 20-1356, species assumed): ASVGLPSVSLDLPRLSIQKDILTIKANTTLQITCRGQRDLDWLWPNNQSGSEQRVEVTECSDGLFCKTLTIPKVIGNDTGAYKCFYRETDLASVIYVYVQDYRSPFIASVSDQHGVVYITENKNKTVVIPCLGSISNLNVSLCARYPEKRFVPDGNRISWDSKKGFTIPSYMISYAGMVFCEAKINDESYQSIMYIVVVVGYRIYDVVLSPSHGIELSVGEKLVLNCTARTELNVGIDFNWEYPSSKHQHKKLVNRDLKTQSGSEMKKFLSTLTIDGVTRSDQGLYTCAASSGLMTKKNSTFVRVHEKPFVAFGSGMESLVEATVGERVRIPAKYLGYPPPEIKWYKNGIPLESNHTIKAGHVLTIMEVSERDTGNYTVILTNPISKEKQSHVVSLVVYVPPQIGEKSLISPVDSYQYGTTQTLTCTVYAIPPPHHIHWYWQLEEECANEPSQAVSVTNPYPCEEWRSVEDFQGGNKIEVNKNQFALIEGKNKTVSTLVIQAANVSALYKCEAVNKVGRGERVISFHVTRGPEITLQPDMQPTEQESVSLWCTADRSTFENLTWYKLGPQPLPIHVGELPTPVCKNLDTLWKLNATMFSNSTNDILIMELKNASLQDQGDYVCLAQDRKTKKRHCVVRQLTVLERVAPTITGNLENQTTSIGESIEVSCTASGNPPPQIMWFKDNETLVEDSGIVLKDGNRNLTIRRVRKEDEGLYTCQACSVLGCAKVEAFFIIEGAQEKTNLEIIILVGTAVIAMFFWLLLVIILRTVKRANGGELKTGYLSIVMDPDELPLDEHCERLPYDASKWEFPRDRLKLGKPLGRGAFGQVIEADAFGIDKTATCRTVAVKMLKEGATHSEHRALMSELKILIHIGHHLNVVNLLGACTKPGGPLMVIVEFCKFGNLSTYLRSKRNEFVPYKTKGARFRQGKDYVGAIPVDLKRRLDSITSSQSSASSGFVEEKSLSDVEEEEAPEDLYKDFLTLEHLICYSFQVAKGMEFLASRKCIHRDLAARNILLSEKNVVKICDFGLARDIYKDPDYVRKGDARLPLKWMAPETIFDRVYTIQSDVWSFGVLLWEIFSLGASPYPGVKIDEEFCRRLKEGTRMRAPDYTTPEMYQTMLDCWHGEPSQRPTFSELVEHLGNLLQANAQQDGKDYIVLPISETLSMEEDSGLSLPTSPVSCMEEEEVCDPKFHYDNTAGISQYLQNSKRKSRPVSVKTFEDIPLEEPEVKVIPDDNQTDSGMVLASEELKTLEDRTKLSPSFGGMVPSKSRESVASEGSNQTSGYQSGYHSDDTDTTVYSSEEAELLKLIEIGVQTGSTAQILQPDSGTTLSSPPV
T5 sequence (P07333 20-972): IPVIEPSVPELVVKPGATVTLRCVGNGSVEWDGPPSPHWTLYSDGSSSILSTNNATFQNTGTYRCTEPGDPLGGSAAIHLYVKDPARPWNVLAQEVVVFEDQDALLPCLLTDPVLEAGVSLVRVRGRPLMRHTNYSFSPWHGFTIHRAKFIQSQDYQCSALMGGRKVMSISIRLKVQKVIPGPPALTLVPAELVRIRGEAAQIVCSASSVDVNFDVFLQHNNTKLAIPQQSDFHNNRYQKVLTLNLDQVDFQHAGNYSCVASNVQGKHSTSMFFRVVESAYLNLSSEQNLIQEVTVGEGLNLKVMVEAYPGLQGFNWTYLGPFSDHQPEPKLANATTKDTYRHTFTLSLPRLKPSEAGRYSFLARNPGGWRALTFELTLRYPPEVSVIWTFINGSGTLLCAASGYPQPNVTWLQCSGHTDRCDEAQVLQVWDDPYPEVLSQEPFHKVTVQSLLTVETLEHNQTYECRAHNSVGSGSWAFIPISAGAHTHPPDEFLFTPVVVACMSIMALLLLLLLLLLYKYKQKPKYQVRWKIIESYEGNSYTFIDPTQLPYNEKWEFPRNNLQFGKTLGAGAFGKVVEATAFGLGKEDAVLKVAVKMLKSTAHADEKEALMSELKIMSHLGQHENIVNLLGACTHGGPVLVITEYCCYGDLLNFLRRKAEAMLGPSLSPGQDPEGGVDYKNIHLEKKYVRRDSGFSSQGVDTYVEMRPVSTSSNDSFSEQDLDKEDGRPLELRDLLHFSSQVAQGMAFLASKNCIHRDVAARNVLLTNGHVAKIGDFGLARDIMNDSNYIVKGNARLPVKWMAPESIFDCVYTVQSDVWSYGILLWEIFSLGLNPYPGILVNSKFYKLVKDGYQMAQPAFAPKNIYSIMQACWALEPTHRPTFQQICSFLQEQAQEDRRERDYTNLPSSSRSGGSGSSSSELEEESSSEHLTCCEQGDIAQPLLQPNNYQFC
T3 sequence (P09619 33-1106, species assumed): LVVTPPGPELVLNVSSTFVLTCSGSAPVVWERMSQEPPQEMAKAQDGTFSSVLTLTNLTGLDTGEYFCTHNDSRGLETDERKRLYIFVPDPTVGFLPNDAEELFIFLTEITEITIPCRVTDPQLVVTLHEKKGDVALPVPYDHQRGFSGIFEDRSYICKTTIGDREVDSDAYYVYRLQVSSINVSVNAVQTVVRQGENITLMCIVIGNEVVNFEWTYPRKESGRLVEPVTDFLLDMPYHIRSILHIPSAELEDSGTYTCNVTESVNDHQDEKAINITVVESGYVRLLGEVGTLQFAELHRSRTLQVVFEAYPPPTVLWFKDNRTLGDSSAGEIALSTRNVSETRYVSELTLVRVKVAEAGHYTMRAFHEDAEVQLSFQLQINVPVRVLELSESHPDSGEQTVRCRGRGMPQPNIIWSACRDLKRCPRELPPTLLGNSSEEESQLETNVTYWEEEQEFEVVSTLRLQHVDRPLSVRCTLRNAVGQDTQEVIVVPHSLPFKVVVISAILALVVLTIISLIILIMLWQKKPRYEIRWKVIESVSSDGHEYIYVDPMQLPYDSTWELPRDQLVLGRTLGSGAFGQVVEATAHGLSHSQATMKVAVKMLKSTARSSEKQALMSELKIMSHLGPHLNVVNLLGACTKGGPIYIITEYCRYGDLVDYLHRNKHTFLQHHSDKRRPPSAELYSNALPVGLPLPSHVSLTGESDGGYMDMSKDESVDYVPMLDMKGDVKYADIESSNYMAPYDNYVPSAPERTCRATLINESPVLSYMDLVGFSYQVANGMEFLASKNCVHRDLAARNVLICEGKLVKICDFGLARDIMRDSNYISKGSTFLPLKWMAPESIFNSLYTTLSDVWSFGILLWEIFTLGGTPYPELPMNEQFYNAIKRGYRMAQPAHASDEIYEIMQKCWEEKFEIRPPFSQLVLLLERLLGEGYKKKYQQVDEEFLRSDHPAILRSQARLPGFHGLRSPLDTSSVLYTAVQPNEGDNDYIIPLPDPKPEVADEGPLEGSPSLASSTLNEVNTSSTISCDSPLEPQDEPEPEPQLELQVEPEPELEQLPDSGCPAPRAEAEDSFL

For the molecule `COc1ccc(Cl)cc1NC(=O)Nc1cccc2c1ccn2Cc1ccnc2[nH]ccc12.Cl` [Example 2a/2b, 1-(2-Methoxyl-5-chlorophenyl)-3-[1-(1H-pyrrolo[2,3-b]pyridin-4-ylmethyl)-1H-indol-4-yl]urea hydrochloride], the remaining activity at 0.1 µM in test [1] is below 70%. Further, the “% c-Met kinase activity remains” value in test [2] is “A (the percentage of kinase activity remains is below 70%)”. In addition, the “Tumor Growth Inhibition (TGI)” value in test [3], in [4], in test [5] (100 mg/kg oral once per day), in test [6] (100 mg/kg oral once per day) and in test [7] was “A (the TGI is greater or equal to 50%)” each time.

For the molecule `COc1ccc(Cl)cc1NC(=O)Nc1cccc2c1ccn2Cc1c[nH]c2ncccc12.Cl` [Example 3, 1-(2-Methoxyl-5-chlorophenyl)-3-[1-(1H-pyrrolo[2,3-b]pyridin-3-ylmethyl)-1H-indol-4-yl]urea hydrochloride], the remaining activity at 0.1 µM in test [8] is at least 70%; in test [1] it was below 70%. The “% c-Met kinase activity remains” value in [2] is on record as “A (the percentage of kinase activity remains is below 70%)”. Besides, the “Tumor Growth Inhibition (TGI)” value in test [3], in test [5] (100 mg/kg oral once per day) and in test [9] was “A (the TGI is greater or equal to 50%)” each time.

Consider `O=C(Nc1cccc(Cl)c1)Nc1cccc2c1ccn2Cc1ccnc2[nH]ccc12` [Example 38, 1-(3-Chlorophenyl)-3-[1-(1H-pyrrolo[2,3-b]pyridin-4-ylmethyl)-1H-indol-4-yl]urea hydrochloride], for which, in [1], the remaining activity at 0.1 µM is below 70%. The “% c-Met kinase activity remains” value in [2] is on record as “A (the percentage of kinase activity remains is below 70%)”. In addition, the “Tumor Growth Inhibition (TGI)” value in test [3] and in [10] was “A (the TGI is greater or equal to 50%)” throughout.

For `Cc1cccc(NC(=O)Nc2cccc3c2ccn3Cc2ccnc3[nH]ccc23)c1.Cl` [Example 44, 1-(3-Methylphenyl)-3-[1-(1H-pyrrolo[2,3-b]pyridin-4-ylmethyl)-1H-indol-4-yl]urea hydrochloride], the “c-Kit % Ctrl” value in test [11] stood at 0.35 % Ctrl. Further, in test [12], the “CSF-1R % Ctrl” value worked out at 0.8 % Ctrl. For the same molecule, in [13], the “EPHA2 % Ctrl” value came to 6 % Ctrl. Further, the remaining activity at 0.1 µM in [1] is below 70%. In addition, the “% c-Met kinase activity remains” value in [2] is “A (the percentage of kinase activity remains is below 70%)”. In addition, the “Tumor Growth Inhibition (TGI)” value in [3], in test [4], in [5] (50 mg/kg oral once per day) and in [6] (50 mg/kg oral once per day) was “A (the TGI is greater or equal to 50%)” in each case.
